Read-outs that look alike come from different tables or passages of the source.
Test: Distribution of radioactivity in tissues of female rats after intravenous administration
Assay type: in vivo
Details: rat; for Brain/Blood ratio / Distribution of radioactivity, Brain / Heart/Blood ratio / tissue uptake at 5 min / tissue uptake at 0.25 h / tissue uptake at 0.5 h / tissue uptake at 1 h: mean; for tissue uptake at 5 min / tissue uptake at 0.25 h / tissue uptake at 0.5 h / tissue uptake at 1 h: iv
Protocol: A test radiopharmaceutical methyl-2-deoxy-2-(E)-[^125 I]-iodovinyl-2,4,6-0-triacetyl-β-D-altropyranoside 6 was prepared to establish that a deoxy substituted iodovinyl carbohydrate could be delivered to the brain in significant levels with prolonged retention. One novel aspect of the invention was the scission of an anhydro sugar with the Grignard reagent. This technique was chosen because a variety of 2-deoxy iodovinyl carbohydrates could be prepared depending on the position of the anhydro group within the pyranose ring. The process of the synthesis is shown in the drawing.
The distribution of radioactivity in tissues of female rats at 5 minutes, 15 minutes, 30 minutes and 60 minutes after intravenous administration of the iodinated compound is shown in the following table. The level of accumulation of radioactivity in the brain after injection of this agent was a significant 1.65 percent dose/g at 5 minutes but the blood levels were also high resulting in blood ratios of 1.6/1 at 5 minutes.

Brain/Blood ratio (5 min): 1.5666 | Distribution of radioactivity, Brain (5 min): 1.6525 percent dose/g | Heart/Blood ratio (5 min): 1.0776 | Brain/Blood ratio (15 min): 1.2775 | Heart/Blood ratio (15 min): 1.1490 | Brain/Blood ratio (30 min): 1.1035 | Heart/Blood ratio (30 min): 1.0809 | Brain/Blood ratio (60 min (1 hr)): 1.1087 | Heart/Blood ratio (60 min (1 hr)): 1.0408 | Distribution of radioactivity, Brain (60 min (1 hr), 60 min): 0.7237 percent dose/g | Brain retention at 60 minutes compared with the peak uptake at 5 minutes (60 min vs 5 min): 50% | tissue uptake at 5 min (blood, 5 min, read-out: Distribution of radioactivity, Blood): 1.05 %ID/g | tissue uptake at 0.25 h (blood, 15 min, read-out: Distribution of radioactivity, Blood): 0.933 %ID/g | tissue uptake at 0.5 h (blood, 30 min, read-out: Distribution of radioactivity, Blood): 0.0037 %ID/g | tissue uptake at 1 h (blood, 60 min (1 hr), read-out: Distribution of radioactivity, Blood): 0.653 %ID/g | tissue uptake at 5 min (brain, 5 min, read-out: Distribution of radioactivity, Brain): 1.65 %ID/g | tissue uptake at 0.25 h (brain, 15 min, read-out: Distribution of radioactivity, Brain): 1.19 %ID/g | tissue uptake at 0.5 h (brain, 30 min, read-out: Distribution of radioactivity, Brain): 0.891 %ID/g | tissue uptake at 1 h (brain, 60 min (1 hr), read-out: Distribution of radioactivity, Brain): 0.72 %ID/g | tissue uptake at 5 min (kidney, 5 min, read-out: Distribution of radioactivity, Kidney): 1.55 %ID/g | tissue uptake at 0.25 h (kidney, 15 min, read-out: Distribution of radioactivity, Kidney): 1.57 %ID/g | tissue uptake at 0.5 h (kidney, 30 min, read-out: Distribution of radioactivity, Kidney): 1.7 %ID/g | tissue uptake at 1 h (kidney, 60 min (1 hr), read-out: Distribution of radioactivity, Kidney): 1.57 %ID/g | tissue uptake at 5 min (liver, 5 min, read-out: Distribution of radioactivity, Liver): 1.39 %ID/g | tissue uptake at 0.25 h (liver, 15 min, read-out: Distribution of radioactivity, Liver): 1.37 %ID/g | tissue uptake at 0.5 h (liver, 30 min, read-out: Distribution of radioactivity, Liver): 1.23 %ID/g | tissue uptake at 1 h (liver, 60 min (1 hr), read-out: Distribution of radioactivity, Liver): 1.05 %ID/g | tissue uptake at 5 min (lung, 5 min, read-out: Distribution of radioactivity, Lung): 1.19 %ID/g | tissue uptake at 0.25 h (lung, 15 min, read-out: Distribution of radioactivity, Lung): 1.03 %ID/g | tissue uptake at 0.5 h (lung, 30 min, read-out: Distribution of radioactivity, Lung): 0.833 %ID/g | tissue uptake at 1 h (lung, 60 min (1 hr), read-out: Distribution of radioactivity, Lung): 0.663 %ID/g | tissue uptake at 5 min (thyroid, 5 min, read-out: Distribution of radioactivity, Thyroid): 20.6 %ID/g | tissue uptake at 0.25 h (thyroid, 15 min, read-out: Distribution of radioactivity, Thyroid): 18.9 %ID/g | tissue uptake at 0.5 h (thyroid, 30 min, read-out: Distribution of radioactivity, Thyroid): 25.7 %ID/g | tissue uptake at 1 h (thyroid, 60 min (1 hr), read-out: Distribution of radioactivity, Thyroid): 33.5 %ID/g | Retention in the brain (up to 60 min): prolonged retention in the brain
Compound: CO[C@@H]1O[C@H](COC(C)=O)[C@@H](OC(C)=O)[C@@H](OC(C)=O)[C@@H]1/C=C/[125I] [methyl-2-deoxy-2-(E)-[^125 I]-iodovinyl-2,4,6-0-triacetyl-β-D-altropyranoside]
Stability to in vivo deiodination (from low thyroid accumulation) (up to 60 min): demonstrated the stability of this agent to in vivo deiodination

Reference: US4789542A, “Radioiodinated glucose analogues for use as imaging agents” (The United States of America as represented by the United …, priority 1986, dated 1988)
